Article PMC4364445 (Chemical Science, 2015)

Key:
[1] = system: human intestinal microsomes (HIM); assay: Biocolloid reactor bead LC-MS/MS DNA adduct quantitation, HIM; format: biochemical; conditions: 250 μM 2-AAF, 4 h; organ comparison
cyt P450 1B1 supersomes = target: T1, cyt P450 1B1 supersomes (Homo sapiens, UniProt Q16678); assay: ECL enzyme/DNA array DNA damage rate, cyt P450 1B1; format: biochemical; conditions: pH 7.4
T1 sequence (Q16678 1-543): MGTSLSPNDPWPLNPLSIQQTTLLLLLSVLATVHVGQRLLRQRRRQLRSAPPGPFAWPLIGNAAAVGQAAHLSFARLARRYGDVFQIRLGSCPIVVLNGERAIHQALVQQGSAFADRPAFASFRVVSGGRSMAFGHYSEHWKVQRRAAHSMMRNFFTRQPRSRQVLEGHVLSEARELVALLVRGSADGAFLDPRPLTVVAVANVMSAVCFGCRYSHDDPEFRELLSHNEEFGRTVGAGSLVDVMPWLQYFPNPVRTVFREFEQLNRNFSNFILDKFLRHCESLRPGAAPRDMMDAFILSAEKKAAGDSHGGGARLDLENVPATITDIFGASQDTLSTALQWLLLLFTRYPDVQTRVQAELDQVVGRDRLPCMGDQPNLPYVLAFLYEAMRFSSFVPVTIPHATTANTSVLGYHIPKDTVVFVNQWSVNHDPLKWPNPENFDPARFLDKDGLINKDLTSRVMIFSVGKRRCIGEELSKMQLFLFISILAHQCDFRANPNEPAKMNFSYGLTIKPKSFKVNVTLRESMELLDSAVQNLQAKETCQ

cyt P450 1A2 supersomes = target: T2, cyt P450 1A2 supersomes (Homo sapiens, UniProt P05177); assay: ECL enzyme/DNA array DNA damage rate, cyt P450 1A2; format: biochemical; conditions: 250 μM 2-AAF, pH 7.4; cyt P450 1A2 compared to cyt P450s 2A6, 3A5 and 1B1
T2 sequence (P05177 2-516 limits assumed): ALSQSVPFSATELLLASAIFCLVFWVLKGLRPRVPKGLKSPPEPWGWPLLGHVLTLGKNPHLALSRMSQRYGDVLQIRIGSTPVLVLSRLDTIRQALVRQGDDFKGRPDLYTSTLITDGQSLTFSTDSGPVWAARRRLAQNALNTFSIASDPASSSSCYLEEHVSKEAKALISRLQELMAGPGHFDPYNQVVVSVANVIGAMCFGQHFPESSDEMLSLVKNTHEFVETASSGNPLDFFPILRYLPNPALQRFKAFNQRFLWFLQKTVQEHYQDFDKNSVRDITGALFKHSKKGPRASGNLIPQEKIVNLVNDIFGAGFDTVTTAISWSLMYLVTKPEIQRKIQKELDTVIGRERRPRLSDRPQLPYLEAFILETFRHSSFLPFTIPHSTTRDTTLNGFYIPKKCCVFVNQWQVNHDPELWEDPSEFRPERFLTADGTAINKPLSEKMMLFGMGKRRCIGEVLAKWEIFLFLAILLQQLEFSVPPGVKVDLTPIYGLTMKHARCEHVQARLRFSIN

rodent = conditions: chronic dietary exposure, ref [40],[49]; cited from earlier work
male rats = conditions: intraperitoneal, ref [60]; cited from earlier work
mice = conditions: dietary administration, ref [61]; cited from earlier work
[2] = system: human organ tissue enzymes (liver, lung, intestine, kidney microsomes with or without cytosol); assay: ECL enzyme/DNA array DNA damage rate, comparison across organ enzymes; conditions: pH 7.4
[3] = system: human organ microsomes, cytosols and cyt P450 supersomes; assay: Biocolloid reactor bead LC-MS/MS DNA adducts, comparison across enzyme sources; conditions: 250 μM 2-AAF, 4 h; all enzyme sources with cytosol
[4] = system: cyt P450 supersomes (3A4, 2A6, 3A5) with or without cytosol; assay: ECL enzyme/DNA array DNA damage rate, comparison across cyt P450 supersomes; format: biochemical, human; conditions: 1 mM styrene, pH 7.4; supersomes + cytosol vs supersomes

Structure (SMILES) | total levels of adducts 8 and 9 (LC-MS/MS) [1] | DNA damage-related activity (ECL array) (cyt P450 1B1 supersomes; 250 μM 2-AAF) | relative DNA damage rate (ECL array) (cyt P450 1A2 supersomes) | formation of tumors, organ order (rodent) | DNA adduct levels, liver vs bladder (male rats) | DNA adduct levels, bladder vs liver (mice) | order of DNA damage rates across organs (ECL array) ([2]; 250 μM 2-AAF, microsomes with cytosolic enzymes included) | adduct 9 in the presence of cytosol enzymes (LC-MS/MS) [3] | DNA damage activity (ECL array) (cyt P450 1B1 supersomes; 1 mM styrene) | decrease of rate of DNA damage when using cyt P450 supersomes and cytosol (ECL array) [4] [fold] | change of rate of DNA damage upon using microsomes and cytosol (ECL array) ([2]; 1 mM styrene, microsomes + cytosol vs microsomes)
CC(=O)Nc1ccc2c(c1)Cc1ccccc1-2 [2-AAF, 2-acetylaminofluorene] | highest for intestine | small | significantly larger rate of DNA damage | liver > intestine > kidney | higher levels of DNA adduct levels in liver than in bladder | higher DNA adduct levels in bladder than in liver | kidney > intestine > lung > liver | not detected |  |  | 
C=Cc1ccccc1 [styrene] |  |  |  |  |  |  |  |  | low activity | 10 | halved
